Data taken from patent US20110053923A1, “CHEMICAL COMPOUNDS 610” (AstraZeneca, priority 2008, published 2011).
Like-named read-outs stand apart in the source and are kept apart here.

Assays:
mTOR = mTOR (Homo sapiens, UniProt P42345); assay: Enzyme - mTOR Kinase Assay (Echo); format: biochemical; conditions: recombinant FLAG-tagged mTOR (1362-2549); AlphaScreen; ATP 20 μM;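 further: enzyme expressed in HEK293 cells, 2 h incubation at room temperature, read-out is phosphorylation of a biotinylated peptide substrate detected with an anti-phospho p70 S6 Kinase (T389) antibody, inhibition lowers signal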
ATR = target: T1, ATR (Homo sapiens, UniProt Q13535); assay: Enzyme Assay - ATR (Test (a)); format: biochemical;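 further: kinase activity of bead-bound ATR toward a GST-p53 N-terminal fragment substrate, 1 h at 37 °C, read by chemiluminescence, with inhibitor-free wells as control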
T1 construct: obtained from HeLa nuclear extract (CIL Biotech, Mons, Belgium) by immunoprecipitation with rabbit polyclonal antiserum raised to amino acids 400-480 of ATR; host or cells: HeLa nuclear extract

[1] = ATR immunoprecipitated from HeLa nuclear extract, 3 μM ATP, average of individual tests, read-out: ATR average IC50

Sequence of mTOR (P42345 1362-2549): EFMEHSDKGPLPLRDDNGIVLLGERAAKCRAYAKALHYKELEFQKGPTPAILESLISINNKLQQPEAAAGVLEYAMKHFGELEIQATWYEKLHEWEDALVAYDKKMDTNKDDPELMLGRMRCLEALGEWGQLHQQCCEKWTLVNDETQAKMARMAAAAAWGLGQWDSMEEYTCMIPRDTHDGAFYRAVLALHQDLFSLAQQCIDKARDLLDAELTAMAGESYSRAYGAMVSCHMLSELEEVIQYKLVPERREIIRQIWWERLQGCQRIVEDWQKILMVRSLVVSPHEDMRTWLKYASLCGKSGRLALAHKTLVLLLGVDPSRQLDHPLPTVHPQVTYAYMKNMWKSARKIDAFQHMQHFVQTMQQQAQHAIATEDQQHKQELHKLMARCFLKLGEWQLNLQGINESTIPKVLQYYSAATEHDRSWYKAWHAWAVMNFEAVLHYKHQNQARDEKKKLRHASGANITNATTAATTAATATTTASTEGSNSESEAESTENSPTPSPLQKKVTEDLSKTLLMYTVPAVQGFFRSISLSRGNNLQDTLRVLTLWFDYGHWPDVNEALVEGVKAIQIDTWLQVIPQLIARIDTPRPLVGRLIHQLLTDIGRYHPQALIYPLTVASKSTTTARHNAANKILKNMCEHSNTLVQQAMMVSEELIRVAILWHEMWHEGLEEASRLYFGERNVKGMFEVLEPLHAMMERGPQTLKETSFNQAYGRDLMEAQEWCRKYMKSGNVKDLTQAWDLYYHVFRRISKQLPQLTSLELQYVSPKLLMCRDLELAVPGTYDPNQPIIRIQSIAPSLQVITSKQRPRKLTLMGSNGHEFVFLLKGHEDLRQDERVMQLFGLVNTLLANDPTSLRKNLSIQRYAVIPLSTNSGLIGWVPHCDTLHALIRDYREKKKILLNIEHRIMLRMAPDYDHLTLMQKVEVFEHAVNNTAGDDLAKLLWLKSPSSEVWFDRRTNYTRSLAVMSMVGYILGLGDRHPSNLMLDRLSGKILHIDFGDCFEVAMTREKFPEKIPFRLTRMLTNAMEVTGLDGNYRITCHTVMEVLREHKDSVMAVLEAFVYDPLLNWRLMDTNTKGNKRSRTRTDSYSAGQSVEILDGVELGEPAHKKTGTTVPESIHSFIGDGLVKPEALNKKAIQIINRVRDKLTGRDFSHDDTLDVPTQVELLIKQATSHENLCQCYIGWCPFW
T1 sequence (Q13535 whole entry, the tested form may be a part): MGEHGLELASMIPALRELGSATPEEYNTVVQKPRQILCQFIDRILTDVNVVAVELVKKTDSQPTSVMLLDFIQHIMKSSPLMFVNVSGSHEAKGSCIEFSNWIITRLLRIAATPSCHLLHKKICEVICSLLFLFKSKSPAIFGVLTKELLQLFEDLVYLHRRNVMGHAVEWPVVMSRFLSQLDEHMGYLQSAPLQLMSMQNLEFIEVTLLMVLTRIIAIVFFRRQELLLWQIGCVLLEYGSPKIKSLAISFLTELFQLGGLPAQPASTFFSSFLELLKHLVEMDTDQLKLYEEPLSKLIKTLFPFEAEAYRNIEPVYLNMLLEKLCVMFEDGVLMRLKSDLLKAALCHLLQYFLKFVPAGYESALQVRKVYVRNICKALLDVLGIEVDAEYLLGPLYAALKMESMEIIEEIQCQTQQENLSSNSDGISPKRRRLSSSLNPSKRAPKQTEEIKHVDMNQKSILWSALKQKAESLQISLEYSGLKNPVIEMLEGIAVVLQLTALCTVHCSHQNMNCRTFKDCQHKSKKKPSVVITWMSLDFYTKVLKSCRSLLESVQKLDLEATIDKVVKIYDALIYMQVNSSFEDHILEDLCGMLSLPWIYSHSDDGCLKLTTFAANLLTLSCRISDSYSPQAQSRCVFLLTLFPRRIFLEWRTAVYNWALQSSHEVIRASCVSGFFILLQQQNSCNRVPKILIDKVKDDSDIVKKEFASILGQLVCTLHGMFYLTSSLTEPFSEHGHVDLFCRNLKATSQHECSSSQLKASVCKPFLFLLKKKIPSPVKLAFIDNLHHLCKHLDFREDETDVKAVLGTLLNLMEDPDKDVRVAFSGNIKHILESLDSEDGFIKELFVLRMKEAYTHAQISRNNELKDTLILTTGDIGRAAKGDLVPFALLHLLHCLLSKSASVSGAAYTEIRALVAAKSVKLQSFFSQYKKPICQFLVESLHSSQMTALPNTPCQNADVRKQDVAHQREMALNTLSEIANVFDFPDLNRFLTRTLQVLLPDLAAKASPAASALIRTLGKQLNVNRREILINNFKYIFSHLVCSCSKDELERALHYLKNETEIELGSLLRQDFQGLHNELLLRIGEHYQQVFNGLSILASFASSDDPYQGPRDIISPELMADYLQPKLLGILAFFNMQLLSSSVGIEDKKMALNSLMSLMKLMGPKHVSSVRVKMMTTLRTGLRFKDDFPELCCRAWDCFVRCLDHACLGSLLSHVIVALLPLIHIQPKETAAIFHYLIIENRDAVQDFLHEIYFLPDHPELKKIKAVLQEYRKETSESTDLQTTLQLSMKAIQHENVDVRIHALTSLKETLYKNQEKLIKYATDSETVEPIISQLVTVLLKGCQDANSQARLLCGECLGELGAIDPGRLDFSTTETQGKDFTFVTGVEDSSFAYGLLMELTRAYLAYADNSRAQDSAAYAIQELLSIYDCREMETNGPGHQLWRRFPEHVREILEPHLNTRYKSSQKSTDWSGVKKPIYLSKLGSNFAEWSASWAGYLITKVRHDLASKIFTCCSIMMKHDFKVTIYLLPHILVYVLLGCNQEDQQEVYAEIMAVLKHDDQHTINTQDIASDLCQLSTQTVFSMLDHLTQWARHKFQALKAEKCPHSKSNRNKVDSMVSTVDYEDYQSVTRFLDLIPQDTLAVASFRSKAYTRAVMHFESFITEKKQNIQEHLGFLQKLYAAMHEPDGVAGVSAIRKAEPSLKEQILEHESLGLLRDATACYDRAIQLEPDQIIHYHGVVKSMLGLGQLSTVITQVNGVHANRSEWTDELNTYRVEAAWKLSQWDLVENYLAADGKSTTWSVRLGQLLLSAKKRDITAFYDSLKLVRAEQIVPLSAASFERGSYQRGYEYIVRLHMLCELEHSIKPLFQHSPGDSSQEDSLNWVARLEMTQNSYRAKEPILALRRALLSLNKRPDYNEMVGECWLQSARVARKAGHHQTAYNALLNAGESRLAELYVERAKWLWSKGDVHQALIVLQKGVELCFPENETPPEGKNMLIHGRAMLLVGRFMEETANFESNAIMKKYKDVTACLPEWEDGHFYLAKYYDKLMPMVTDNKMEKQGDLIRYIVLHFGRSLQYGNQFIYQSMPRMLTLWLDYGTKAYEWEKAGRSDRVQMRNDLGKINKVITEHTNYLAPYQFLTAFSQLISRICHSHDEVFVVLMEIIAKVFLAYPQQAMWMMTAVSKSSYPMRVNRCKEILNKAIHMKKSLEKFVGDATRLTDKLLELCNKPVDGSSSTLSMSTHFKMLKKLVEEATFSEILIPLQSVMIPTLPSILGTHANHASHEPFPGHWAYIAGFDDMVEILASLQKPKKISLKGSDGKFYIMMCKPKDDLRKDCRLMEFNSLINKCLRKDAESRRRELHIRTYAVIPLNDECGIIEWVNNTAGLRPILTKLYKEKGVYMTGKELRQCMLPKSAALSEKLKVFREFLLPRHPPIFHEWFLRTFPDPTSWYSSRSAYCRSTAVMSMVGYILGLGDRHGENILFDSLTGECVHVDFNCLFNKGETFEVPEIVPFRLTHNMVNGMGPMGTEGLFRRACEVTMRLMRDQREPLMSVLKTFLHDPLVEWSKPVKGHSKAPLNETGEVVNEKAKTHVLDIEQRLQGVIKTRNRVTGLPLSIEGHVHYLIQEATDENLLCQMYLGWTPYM
T1 sequence (Q8WXE1 whole entry partner, the tested form may be a part): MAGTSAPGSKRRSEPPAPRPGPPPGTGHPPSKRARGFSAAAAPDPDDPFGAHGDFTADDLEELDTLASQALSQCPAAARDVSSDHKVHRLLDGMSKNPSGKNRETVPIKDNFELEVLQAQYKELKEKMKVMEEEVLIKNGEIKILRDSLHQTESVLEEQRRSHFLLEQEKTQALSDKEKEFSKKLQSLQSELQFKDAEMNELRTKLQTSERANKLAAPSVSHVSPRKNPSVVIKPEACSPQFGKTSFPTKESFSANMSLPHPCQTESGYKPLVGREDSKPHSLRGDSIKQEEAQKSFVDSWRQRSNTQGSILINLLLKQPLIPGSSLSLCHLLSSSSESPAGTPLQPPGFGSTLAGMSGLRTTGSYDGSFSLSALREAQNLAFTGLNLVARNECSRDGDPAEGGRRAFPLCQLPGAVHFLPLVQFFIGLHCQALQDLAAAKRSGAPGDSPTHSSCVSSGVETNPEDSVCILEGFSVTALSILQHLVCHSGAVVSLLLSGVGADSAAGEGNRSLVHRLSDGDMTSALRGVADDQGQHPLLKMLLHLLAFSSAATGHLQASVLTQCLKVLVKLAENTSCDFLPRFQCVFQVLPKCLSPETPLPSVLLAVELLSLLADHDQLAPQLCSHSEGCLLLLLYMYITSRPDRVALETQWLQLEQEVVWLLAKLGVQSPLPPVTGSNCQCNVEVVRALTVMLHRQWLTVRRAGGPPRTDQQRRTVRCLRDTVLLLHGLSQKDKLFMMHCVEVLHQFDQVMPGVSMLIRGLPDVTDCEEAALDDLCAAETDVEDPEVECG

| IC50 (mTOR) | IC50 (ATR; [1]) | SMILES | IC50 (ATR) |
| --- | --- | --- | --- |
| 0.497 µM | 0.0268 µM | C[C@H]1COCCN1c1cc(C2(S(=O)(=O)C3CC3)CCNCC2)nc(-c2cccc3[nH]ccc23)n1 [Example 2.01, 4-{4-[4-(Cyclopropylsulfonyl)piperidin-4-yl]-6-[(3S)-3-methylmorpholin-4-yl]pyrimidin-2-yl}-1H-indole] | – |
| 0.467 µM | 0.376 µM | C[C@H]1COCCN1c1cc(C2(S(=O)(=O)C3CC3)CCOCC2)nc(-c2cccc3[nH]ccc23)n1 [Example 2.02, 4-{4-[4-(Cyclopropylsulfonyl)tetrahydro-2H-pyran-4-yl]-6-[(3S)-3-methylmorpholin-4-yl]pyrimidin-2-yl}-1H-indole] | – |
| 0.099 µM | 0.00621 µM | C[C@H]1COCCN1c1cc(C2(S(C)(=O)=O)CCCC2)nc(-c2cccc3[nH]ccc23)n1 [Example 2.03, 4-{4-[(3S)-3-Methylmorpholin-4-yl]-6-[1-(methylsulfonyl)cyclopentyl]pyrimidin-2-yl}-1H-indole] | – |
| 0.3 µM | 0.00455 µM | C[C@H]1COCCN1c1cc(C2(S(C)(=O)=O)CCOCC2)nc(-c2cccc3[nH]ccc23)n1 [Example 2.04, 4-{4-[(3S)-3-Methylmorpholin-4-yl]-6-[4-(methylsulfonyl)tetrahydro-2H-pyran-4-yl]pyrimidin-2-yl}-1H-indole] | – |
| 0.0972 µM | 0.00666 µM | Cc1cc(-c2nc(N3CCOC[C@H]3C)cc(C3(S(C)(=O)=O)CC3)n2)c2cc[nH]c2c1 [Example 3.02, 6-Methyl-4-{4-[(3R)-3-methylmorpholin-4-yl]-6-[1-(methylsulfonyl)cyclopropyl]pyrimidin-2-yl}-1H-indole] | – |
| 0.0463 µM | 0.00546 µM | Cc1cc2c(-c3nc(N4CCOC[C@H]4C)cc(C4(S(C)(=O)=O)CC4)n3)cccc2[nH]1 [Example 3.03, 2-Methyl-4-{4-[(3R)-3-methylmorpholin-4-yl]-6-[1-(methylsulfonyl)cyclopropyl]pyrimidin-2-yl}-1H-indole] | – |
| 0.207 µM | 0.0355 µM | C[C@@H]1COCCN1c1cc(C2(S(C)(=O)=O)CC2)nc(-c2cc(C#N)cc3[nH]ccc23)n1 [Example 3.04, 4-{4-[(3R)-3-Methylmorpholin-4-yl]-6-[1-(methylsulfonyl)cyclopropyl]pyrimidin-2-yl}-1H-indole-6-carbonitrile] | – |
| 0.0546 µM | 0.00423 µM | C[C@@H]1COCCN1c1cc(C2(S(C)(=O)=O)CC2)nc(-c2cc(Cl)cc3[nH]ccc23)n1 [Example 3.05, 6-chloro-4-{4-[(3R)-3-methylmorpholin-4-yl}-6-[1-(methylsulfonyl)cyclopropyl]pyrimidin-2-yl}-1H-indole] | – |
| 0.038 µM | 0.00345 µM | C[C@@H]1COCCN1c1cc(C2(S(C)(=O)=O)CC2)nc(-c2cc(F)cc3[nH]ccc23)n1 [Example 3.06] | – |
| 0.0241 µM | 0.0124 µM | COc1cc(-c2nc(N3CCOC[C@H]3C)cc(C3(S(C)(=O)=O)CC3)n2)c2cc[nH]c2c1 [Example 3.07, 6-methoxy-4-{4-[(3R)-3-methylmorphohn-4-yl]-6-[1-(methylsulfonyl)cyclopropyl]pyrimidin-2-yl}-1H-indole] | – |
| – | 0.0202 µM | C[C@@H]1COC[C@H](C)N1c1cc(C2(S(C)(=O)=O)CC2)nc(-c2cccc3[nH]ccc23)n1 [Example 4.01, 4-{4-[(3S,5R)-3,5-Dimethylmorpholin-4-yl]-6-[1-(methylsulfonyl)cyclopropyl]pyrimidin-2-yl}-1H-indole] | – |
| 0.021 µM | – | CS(=O)(=O)C1(c2cc(N3CC4CCC(C3)O4)nc(-c3cccc4[nH]ccc34)n2)CC1 [Example 5.01, 4-{4-[1-(Methylsulfonyl)cyclopropyl]-6-(8-oxa-3-azabicyclo[3.2.1]oct-3-yl)pyrimidin-2-yl}-1H-indole] | – |

The remaining lines, values behind:

| SMILES | IC50 (mTOR) | IC50 (ATR; [1]) | IC50 (ATR) |
| --- | --- | --- | --- |
| CS(=O)(=O)C1(c2cc(N3CCOCC3)nc(-c3cccc4[nH]ccc34)n2)CC1 [Example 1.01, 4-{4-[1-(Methylsulfonyl)cyclopropyl]-6-morpholin-4-ylpyrimidin-2-yl}-1H-indole] | 0.179 µM | – | – |
| Cc1cc(-c2nc(N3CCOCC3)cc(C3(S(C)(=O)=O)CC3)n2)c2cc[nH]c2c1 [Example 1.02, 6-Methyl-4-{4-[1-(methylsulfonyl)cyclopropyl]-6-morpholin-4-ylpyrimidin-2-yl}-1H-indole] | 0.11 µM | 0.00767 µM | – |
| Cc1cc2c(-c3nc(N4CCOCC4)cc(C4(S(C)(=O)=O)CC4)n3)cccc2[nH]1 [Example 1.03, 2-Methyl-4-{4-[1-(methylsulfonyl)cyclopropyl]-6-morpholin-4-ylpyrimidin-2-yl}-1H-indole] | 0.166 µM | – | 0.0275 µM |
| CS(=O)(=O)C1(c2cc(N3CCOCC3)nc(-c3cc(C#N)cc4[nH]ccc34)n2)CC1 [Example 1.05, 4-{4-[1-(methylsulfonyl)cyclopropyl]-6-morpholin-4-ylpyrimidin-2-yl}-1H-indole-6-carbonitrile] | 0.326 µM | 0.0659 µM | – |
| CS(=O)(=O)C1(c2cc(N3CCOCC3)nc(-c3cc(Cl)cc4[nH]ccc34)n2)CC1 [Example 1.06, 6-chloro-4-{4-[1-(methylsulfonyl)cyclopropyl]-6-morpholin-4-ylpyrimidin-2-yl}-1H-indole] | 0.0712 µM | 0.0158 µM | – |
| CS(=O)(=O)C1(c2cc(N3CCOCC3)nc(-c3cccc4[nH]ccc34)n2)CCNCC1 [Example 1.08, 4-{4-[4-(Methylsulfonyl)piperidin-4-yl]-6-morpholin-4-ylpyrimidin-2-yl}-1H-indole] | 0.231 µM | 0.00944 µM | – |
| CS(=O)(=O)C1(c2cc(N3CCOCC3)nc(-c3cccc4[nH]ccc34)n2)CCOCC1 [Example 1.09, 4-{4-[4-(Methylsulfonyl)tetrahydro-2H-pyran-4-yl]-6-morpholin-4-ylpyrimidin-2-yl}-1H-indole] | – | 0.00374 µM | – |
| CCS(=O)(=O)C1(c2cc(N3CCOCC3)nc(-c3cccc4[nH]ccc34)n2)CC1 [Example 1.10, 4-{4-[1-(ethylsulfonyl)cyclopropyl]-6-morpholin-4-ylpyrimidin-2-yl}-1H-indole] | 0.0958 µM | 0.015 µM | – |
| CC(C)S(=O)(=O)C1(c2cc(N3CCOCC3)nc(-c3cccc4[nH]ccc34)n2)CC1 [Example 1.11, 4-(4-{1-[(1-methylethyl)sulfonyl]cyclopropyl}-6-morpholin-4-ylpyrimidin-2-yl)-1H-indole] | 0.122 µM | 0.0132 µM | – |
| O=S(=O)(C1CC1)C1(c2cc(N3CCOCC3)nc(-c3cccc4[nH]ccc34)n2)CC1 [Example 1.12, 4-{4-[1-(cyclopropylsulfonyl)cyclopropyl]-6-morpholin-4-ylpyrimidin-2-yl}-1H-indole] | > 90 µM | 0.0321 µM | – |
| O=S(=O)(C1CC1)C1(c2cc(N3CCOCC3)nc(-c3cccc4[nH]ccc34)n2)CCOCC1 [Example 1.13, 4-{4-[4-(cyclopropylsulfonyl)tetrahydro-2H-pyran-4-yl]-6-morpholin-4-ylpyrimidin-2-yl}-1H-indole] | 1.24 µM | 0.0583 µM | – |
| O=S(=O)(C1CC1)C1(c2cc(N3CCOCC3)nc(-c3cccc4[nH]ccc34)n2)CCNCC1 [Example 1.14, 4-{4-[4-(cyclopropylsulfonyl)piperidin-4-yl]-6-morpholin-4-ylpyrimidin-2-yl}-1H-indole] | 1.46 µM | 0.0224 µM | – |
